Results reported in patent US20040235955A1, “Remedies for pruritus” (priority 2001, published 2004).

How the values were obtained:
[1] = tested on: model of allergic dermatitis; experiment: inhibitory effect against pruritus in a model of allergic dermatitis (DNFB hapten, scratching count); assay type: in vivo; settings: male BALB/c mice; 0.15% DNFB weekly; 100 mg/5 ml/kg orally; scratching from 3 to 5 hours and from 24 to 26 hours after fifth application of hapten; vs control; FIG. 3
Method: The inhibitory effect against pruritus in a model of allergic dermatitis. The back of male BALB/c mice (Charles River Japan Inc., 6 week-old) were sheared by hair clipper. 0.15% dinitrofluorobenzene (DNFB) dissolved in mixed solution of acetone and olive oil as hapten was administered 50 μl by micro pipette in the back once a week. After forth applications, the scratching was measured from 3 to 5 hours and from 24 to 26 hours and mice were divided to each group referring the scratch data. 0.5% MC or the test compound (100 mg/5 ml/kg) was administered orally forth every 30 minutes from 30 minutes before 3 and 24 hours, respectively after fifth application of hapten. The scratching was videotaped from 3 to 5 hours and from 24 to 26 hours, respectively, after fifth application of hapten. The scratching was counted and estimated.

[2] = tested on: pruritus induced by serotonin and PGE2; experiment: inhibitory effect against pruritus induced by serotonin and PGE2 (scratching count); assay type: in vivo; settings: male ICR mice, scratching counted for 30 minutes, vs control
Method: The inhibitory effect against pruritus induced by serotonin and PGE2.
The back of male ICR mice (Charles River Japan Inc., 5 week-old) were sheared by hair clipper. 0.5% MC or the above test compound (100 mg/5 ml/kg or 300 mg/5 ml/kg) was administered orally. After 15 minutes or 1hour, serotonin (3 μg) or mixed solution of serotonin (3 μg) and PGE2 (1nmol) was injected intradermally (20 μl) into the. back of mouse. Scratching of the injected site or the perimeter by the behind paws of mouse was characterized as itch. The scratching was counted for 30 minutes from the injection.
0.5% MC [administration at 15 minutes before the induction]/serotonin (n=10) 0.5% MC [administration at 15 minutes before the induction]/serotonin+PGE2 (n=10) compound (1) [administration at 15 minutes before the induction]/serotonin+PGE2 (n=10) compound (2) [administration at 15 minutes before the
0.5% MC [administration at 1hour before the induction]/serotonin (n=10) 0.5% MC [administration at 1hour before the induction]/serotonin+PGE2 (n=10) compound (3) [administration at 1hour before the induction]/serotonin+PGE2 (n=10)

[3] = 100 mg/5 ml/kg orally 15 minutes before intradermal serotonin (3 μg) + PGE2 (1 nmol), FIG. 1

Row | SMILES | number of scratching in serotonin and PGE2-induced pruritus [2, 3] | further results
1 | O=C(O)CCc1ccc(Cn2cccn2)cc1OCCc1ccc2ccccc2c1 [Compound (4), 3-(2-(2-(naphthalen-2-yl)ethoxy)-4-(pyrazol-1-ylmethyl)phenyl)propanoic acid] |  | number of scratching in allergic dermatitis model [1]: inhibited significantly against control
2 | O=C([O-])CCc1ccc(Cn2cccn2)cc1OCCc1ccc2ccccc2c1.[Na+] [Compound (1), sodium 3-(2-(2-(naphthalen-2-yl)ethoxy)-4-(pyrazol-1-ylmethyl)phenyl)propanoate] | inhibited significantly against control | 
3 | COc1ccc(Br)cc1S(=O)(=O)NC(=O)/C=C/c1ccccc1Cc1ccc2ccccc2c1 [Compound (3), (2E)-N-(5-bromo-2-methoxyphenylsulfonyl)-3-(2-(naphthalen-2-ylmethyl)phenyl) -2-propenamide] |  | number of scratching in serotonin and PGE2-induced pruritus ([2]; 300 mg/5 ml/kg orally 1 hour before intradermal serotonin (3 μg) + PGE2 (1 nmol), FIG. 2): inhibited significantly against control
4 | CC(C)CC(C(=O)Nc1cc(C#N)ccc1Cc1ccccc1C(=O)[O-])c1cccc2ccccc12.[Na+] (stereo not shown) [Compound (2), sodium 2-[4-cyano-2-[4-methyl-2-(1-naphthyl)pentanoylamino]phenylmethyl]benzoate] | inhibited significantly against control | 
